“Also recorded” adds a separate entry of the source.
What was measured:
rat connexin 26 (Cx26) = target: T1, rat connexin 26 (Cx26) (Rattus norvegicus, UniProt P21994); experiment: Dye-transfer assay, GJIC through connexin 26 (HeLa-Cx26); type: cell-based; conditions: for connexin 26 inhibitory activity: result in words
T1 construct: expressed in transfected cells; host or cells: HeLa cell subclone HeLa-Cx26 (human uterocervical squamous carcinoma)
Experimental: (§1) Next, with respect to each oleamide derivative synthesized by the method described above, we studied whether each derivative inhibited connexin 26 (in other words, whether each one inhibited the transfer of a substance from one cell to another through a gap junction formed by the connexin 26). The experimental method was the same as that described in International Publication WO 2004/060398. Each gap junction intercellular communication (GJIC) score of each test substance was evaluated by dye-transfer assay.
(§2) In the same manner as in the method described in the above-mentioned publication, human uterocervical squamaous carcinoma cells (HeLa cells) were used for the experiment. More specifically, HeLa cell subclones (HeLa-Cx26 and HeLa-Cx43) were used, and they stably expressed rat connexin 26 (Cx26) and rat connexin 43 (Cx43), respectively. All cells (including those in the examples described later) were incubated in Dulbecco's modified eagle's medium (DMEM) with 10% fetal calf serum (FCS) added.
(§3) A day before the assay, the HeLa-Cx26 and HeLa-Cx43 cells each were suspended individually in DMEM containing 10% FCS. The respective cells were divided to be cultured as donor cells and recipient cells. The recipient cells were cultured in a culture dish with a diameter of 3 cm and were adjusted to yield subconfluent monolayers at the time of assay.
In the assay, first, both the dyes of calcein (gap junction-permeable) and DiI (gap junction-impermeable) were added to the culture of donor cells at concentrations of 10 μM and 2 μM, respectively, and incubated for one hour. Double-labeled donor cells were trypsinized and washed three times with phosphate-buffered saline. Thereafter each single donor cell was overlaid gently on unlabeled recipient cells. It took one hour for the donor cell to settle over a monolayer. […] Dye transfer from a donor cell to an adjacent recipient cell through a gap junction was observed.
In order to evaluate the inhibitory activity of each test substance with respect to the dye-coupling, one hour after the donor cells were planted, oleamide and the multimeric oleamide derivatives described above each were dissolved in ethanol, and 10 μL thereof was then added to each culture dish so that the final concentration was 20 μM. For control, ethanol diluted 1000 times was added to a culture dish.
In FIG. 2, since the donor cell indicated with a “*” mark contains both the calcein (green fluorescence) and DiI (red fluorescence), it is shown in yellow in the original drawing. Furthermore, when gap junction-permeable calcein is transferred to a recipient cell through a gap junction by the dye coupling, this cell is shown in green. With such an assay, the GJIC score of each test substance is evaluated as follows.
(§4) That is, the evaluation was made as “0” where no dye-coupling of a donor cell is found, “1” where the dye-coupling of a donor cell to an adjacent recipient cell is found, “2” and “3” in cases where calcein that has been transferred to the adjacent recipient cell is transferred to the second and third adjacent cells in a direction away from the donor cell, respectively, and so on. Also, as shown with arrows in the drawing, the extent of cell dyeing was evaluated with four levels of 0.25, 0.5, 0.75, and 1.0 as intermediate levels.
(§5) Such an assay was carried out three times repeatedly. […] Then the average value and standard deviation of the GJIC scores of the respective test substances were calculated. […]

rat connexin 43 (Cx43) = target: T2, rat connexin 43 (Cx43) (Rattus norvegicus, UniProt P08050); experiment: Dye-transfer assay, GJIC through connexin 43 (HeLa-Cx43); type: cell-based; conditions: for connexin 43 inhibitory activity: HeLa-Cx43, 20 μM, result in words
T2 construct: expressed in transfected cells; host or cells: HeLa cell subclone HeLa-Cx43 (human uterocervical squamous carcinoma)
T2 sequence (P08050 2-382 limits assumed): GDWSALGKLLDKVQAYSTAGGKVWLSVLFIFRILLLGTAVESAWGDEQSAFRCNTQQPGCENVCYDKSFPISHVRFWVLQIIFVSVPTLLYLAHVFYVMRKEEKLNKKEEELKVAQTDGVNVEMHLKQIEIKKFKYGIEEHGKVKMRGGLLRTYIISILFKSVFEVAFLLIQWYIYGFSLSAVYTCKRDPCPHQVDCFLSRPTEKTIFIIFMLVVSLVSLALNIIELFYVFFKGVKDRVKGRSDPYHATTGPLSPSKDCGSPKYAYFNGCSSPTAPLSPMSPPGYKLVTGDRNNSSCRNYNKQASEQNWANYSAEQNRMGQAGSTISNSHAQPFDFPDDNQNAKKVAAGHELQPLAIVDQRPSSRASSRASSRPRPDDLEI
Experimental: as §1, §2, §3
In the assay, first, both the dyes of calcein (gap junction-permeable) and DiI (gap junction-impermeable) were added to the culture of donor cells at concentrations of 10 μM and 2 μM, respectively, and incubated for one hour. Double-labeled donor cells were trypsinized and washed three times with phosphate-buffered saline. Thereafter each single donor cell was overlaid gently on unlabeled recipient cells. It took one hour for the donor cell to settle over a monolayer. […]
In FIG. 2, since the donor cell indicated with a “*” mark contains both the calcein (green fluorescence) and DiI (red fluorescence), it is shown in yellow in the original drawing. […] With such an assay, the GJIC score of each test substance is evaluated as follows.
as §4, §5

Az521 cells [1] = experiment: Cancer growth inhibition (antitumor effect), Az521 cells implanted subcutaneously in nude mice; type: in vivo, mouse
Experimental: Az521 cells, which were human gastric cancer cells, were implanted subcutaneously into the back of each nude mouse. Then the cancer growth inhibitory effect (antitumor effect) provided by MI-22 peritoneal administration was examined. More specifically, 1-2×10^5 Az521 cells were injected subcutaneously into the back of each 4-week-old BALB/c nude mouse (nu/nu). Three days before the subcutaneous implantation, 0.1 mL of a solution containing MI-22 (10 mg) dissolved in olive oil (10 mL) was injected intraperitoneally. After the subcutaneous implantation, MI-22 was administered intraperitoneally in the same manner twice a week. For the control mice group, no drug administration/treatment by injection was carried out.
The sizes of tumors formed after the subcutaneous implantation were observed, and then the antitumor effect of MI-22 was evaluated with the weight of the tumors being measured over time. The results are shown in the graph in FIG. 7. The vertical axis indicates the weight (mg) of tumors, and the horizontal axis indicates the number of days after the subcutaneous implantation. The average values of six tumors are shown with respect to three nude mice.

Az521 cells [2] = experiment: Cytotoxicity assay (cell growth inhibitory potential), trypan blue cell count; type: cell-based, human; conditions: Az521 cells in culture, 6-48 hours, FIG. 6
Experimental: In order to examine the cytotoxicity (cell growth inhibitory potential) of MI-22, approximately 1×10^5 Az521 cells, which were human gastric cancer cells, were plated in each petri dish with a diameter of 3.5 cm and were cultured in the presence or absence (control) of MI-22. Then 6, 12, 24, 36, and 48 hours after the start of culture, the cells in each petri dish were taken off with trypsin-EDTA and then centrifuged. Thereafter the cells were dissolved in 10% FBS-containing DMEM, and then 10 μL of trypan blue was added to 10 μL thereof. After that, the number of cells was counted by the use of a counting chamber. The results are shown in the graphs in FIG. 6. The vertical axis indicates the number of cells, and the horizontal axis indicates the time. The graphs show averages of the results of experiments performed three times.

[3] = Solubility in organic solvent (handling property); type: physicochemical
[4] = test system: BL6 cells (substrains of B16 mouse melanoma cells); type: in vivo
Experimental: The experiment was carried out by the same method as that described in International Publication WO 2004/060398. That is, after subcutaneously inoculating 1×10^5 BL6 cells (substrains of B16 mouse melanoma cells) to a planter of each 4-week-old C57BL/6 mouse, the mice were classified into two groups.
(1) MI-22 administration group: a group of mice subjected to intraperitoneal injection of MI-22 (10 mg) dissolved in olive oil (10 mL) so as to be 0.01 mL per 1 g of the weight of a mouse, once a day (about 0.2 mL per administration) on consecutive days
(2) Nontreatment (Nt) group: a group of mice subjected to no drug administration/treatment by injection.
This treatment was carried out on consecutive days from the next day of the BL6 cells inoculation. When tumors that had formed at the inoculation sites grew to have diameters of about 7 mm, the legs with the tumors were removed by amputation at the knee joints. Then the above-mentioned treatment was carried out for another two days after the amputation. Thereafter the mice were fed without being treated. Four weeks after the amputations at the knee joints, the mice were euthanized, and metastasized tubercles that had formed at the pleura surface in the left and right lungs (the number of foci that metastasized to the lungs) were counted visually. An evaluation was made using 15 mice per each group.

[5] = HeLa-Cx26, 20 μM, dye-transfer assay

What does the source list for CCCCCCCC/C=C\CCCCCCC(CCCCCC(CCCCCC/C=C\CCCCCCCC)C(=O)N(CC)CC)C(=O)N(CC)CC (stereo not drawn) [MI-39, N^1,N^1,N^9,N^9-Tetraethyl-2,8-di[(Z)-7-hexadecenyl]nonanediamide]?
connexin 26 inhibitory activity (rat connexin 26 (Cx26); [5]): strong connexin 26 inhibitory activity; also recorded: strong connexin 26 inhibitory activities; connexin 43 inhibitory activity (rat connexin 43 (Cx43)): no connexin 43 inhibitory activity; also recorded: hardly inhibited the function of connexin 43

Which results are given for CCCCCCCC/C=C\CCCCCCCC(=O)NCCCNC(=O)CCCCCCC/C=C\CCCCCCCC [MI-45, N^1-[(Z)-3-Octadec-9-enoylaminopropyl]-(Z)-9octadecenamide]?
connexin 26 inhibitory activity (rat connexin 26 (Cx26); [5]): strong connexin 26 inhibitory activity; also recorded: strong connexin 26 inhibitory activities; connexin 43 inhibitory activity (rat connexin 43 (Cx43)): no connexin 43 inhibitory activity; also recorded: hardly inhibited the function of connexin 43

With CCCCCCCC/C=C\CCCCCCC(CCCC(CCCCCC/C=C\CCCCCCCC)C(=O)N(CC)CC)C(=O)N(CC)CC (stereo not drawn) [MI-22, N^1,N^1,N^7,N^7-Tetraethyl-2,6-di[(Z)-7-hexadecenyl]-heptanediamide] as the compound, how does the “growth of tumors (weight of tumors) vs control mice group” value (Az521 cells [1]; BALB/c nude mice, intraperitoneal twice a week, FIG. 7) read?
The value was “suppressed conspicuously”.

What about the “increase in the volume of tumors vs nontreatment mice group (NT)” value (Az521 cells [1]; nude mice, intraperitoneal, FIG. 8) of the same compound?
Its value is “suppressed conspicuously”.

And the “connexin 26 inhibitory activity” value (rat connexin 26 (Cx26); [5])?
Its value is “strong connexin 26 inhibitory activity; also recorded: strong connexin 26 inhibitory activities”.

What about the “GJIC score obtained through connexin 26” value (rat connexin 26 (Cx26); HeLa-Cx26, final concentration 20 μM, dye-transfer assay, FIG. 3) of the same compound?
The value was no more than 2.

What about the “cytotoxicity (cell growth inhibitory potential), number of cells vs control” value (Az521 cells [2]) of the same compound?
Its value is “no significant difference between MI-22 and control; also recorded: not found”.

What about the “solubility in an organic solvent” value [3] of the same compound?
The value was “dissolves well in an organic solvent”.

And the “spontaneous metastasis of cancer vs nontreatment (Nt) group, result in words” value ([4]; C57BL/6 mice, intraperitoneal once a day)?
Its value is “inhibited/suppressed spontaneous metastasis of cancer conspicuously”.

And the “decrease of the number of metastatic foci in the lungs vs nontreatment (Nt) group” value ([4]; C57BL/6 mice, intraperitoneal once a day, 4 weeks after amputation, FIG. 4)?
Its value is 80%.

What about the “number of mice with lungs with slight spontaneous metastasis” value ([4]; of 15 mice per group, FIG. 5 (Nt group: eight)) of the same compound?
The value was “six”.

And the “number of mice with lungs with considerable spontaneous metastasis” value ([4]; of 15 mice per group, FIG. 5 (Nt group: five))?
The value was “two”.

And the “number of mice with lungs with no spontaneous metastasis of cancer” value ([4]; of 15 mice per group, FIG. 5 (Nt group: two))?
The value was “seven”.

And the “connexin 43 inhibitory activity” value (rat connexin 43 (Cx43))?
The value was “no connexin 43 inhibitory activity; also recorded: hardly inhibited the function of connexin 43; also recorded: no effect of inhibiting connexin 43 was found”.

What about the “GJIC score obtained through connexin 43” value (rat connexin 43 (Cx43); HeLa-Cx43, final concentration 20 μM, FIG. 3) of the same compound?
The value was “almost the same as that of a control”.

With CCCCCCCC[C@H]1O[C@H]1CCCCCCCC(=O)NCCCCN(CCCNC(=O)CCCCCCC[C@@H]1O[C@@H]1CCCCCCCC)C(=O)CCCCCCC[C@@H]1O[C@@H]1CCCCCCCC (relative stereo) [MI-51, N^1-{3-[8-{(2S*,3R*)-3-Octyl-oxiranyl}-octanoyl]-N-[4-{8[(2S*,3R*)-3-octyl-oxiranyl]-octanoylamino}-butyl]-aminopropyl}-{8-(2S*,3R*)-3-octyl-oxiranyl}octanamide] as the compound, how does the “connexin 26 inhibitory activity as compared to the control by visual observation” value (rat connexin 26 (Cx26); HeLa-Cx26, 20 μM, visual observation) read?
The value was “found to have a connexin 26 inhibitory activity”.

From patent publication US7846972B2, “Multimeric oleamide derivative having connexin-26 inhibiting potency and use thereof in cancer therapy, etc” (The New Industrial Research Organization, priority 2004, dated 2010)
